The text below walks through data of paper PMC6179045, “Design, synthesis and biological evaluation of tricyclic pyrazolo[1,5-c][1,3]benzoxazin-5(5H)-one scaffolds as selective BuChE inhibitors” (Journal of Enzyme Inhibition and Medicinal Chemistry, 2018).

For series [1], the target named is T1, AChE from electric eel (EeAChE) (Electrophorus electricus, UniProt O42275).
T1 construct: AChE from electric eel (C3389-500UN; Sigma); purchased Sigma C3389-500UN
Description: AChE activity assay (modified Ellman's method). The format is biochemical. The conditions noted are these: AChE from electric eel; 20 µM compound; read-out: inhibition % at 20 µM AChE. On the procedure:
(§1) Enzymatic activity assays were performed on AChE from electric eel (C3389-500UN; Sigma) and BuChE from equine serum (C4290-1KU; Sigma), according to Ellman’s method with light modification. The experiment was performed in 48-well plates in a final volume of 500 µl. Each well contained 0.036 U/ml of EeAChE or eqBuChE, and 0.1 M pH = 8 phosphate buffer. They were incubated for 20 min at different concentrations of test compound at 37 °C. […] The DTNB produced the yellow anion 5-thio-2-nitrobenzoic acid along with the enzymatic degradation of acetylthiocholine or butyrylthiocholine. The absorbance of each assay was measured at 410 nm after 20 min in a Biotek Synergy HTX Multi-Mode reader. The IC50 values were calculated graphically from inhibition curves (log inhibitor concentration vs percent of inhibition). A control experiment was performed under the same conditions without inhibitor and the blank contained buffer, DMSO, DTNB and substrate.

Series [2] deals with T2, BuChE from equine serum (eqBuChE) (Equus caballus, UniProt P81908).
T2 construct: BuChE from equine serum (C4290-1KU; Sigma); purchased Sigma C4290-1KU; host or cells: equine serum
Description: BuChE activity assay (modified Ellman's method). The format is biochemical, equine (horse). The conditions noted are these: BuChE from horse serum; mean ± SEM, n = 3. On the procedure:
as §1
Background: In Ellman's method for cholinesterases, released thiocholine reacts with DTNB.

The subject of series [3] is differentiated PC12 cells. Description: Neuroprotective effect against H2O2-induced damage in differentiated PC12 cells. It counts as cell-based. The conditions noted are these: Rattus norvegicus, PC-12, 25 µM compound 3 h before H2O2 (300 µM), 24 h, MTT, p < .05 vs. H2O2 alone, read-out: cell viability (neuroprotective activity). The procedure: The differentiated PC12 cells and oxidative agent H2O2 were used as in vitro model to assess neuronal differentiation and neurobiochemical and neurobiological properties[39]^,[44]. Differentiated PC12 cells were incubated with different concentrations of compounds 6a and 6g for 3 h before treatment with H2O2 (300 µM). Cell viability was measured after 24 h using MTT method. Briefly, 20 µL of 0.5 mg/ml MTT reagent was added into the cells and incubated for 4 h. After 4 h, cell culture was removed and then 150 µl DMSO was added to dissolve the formazan. OD570 value was measured at 570 nm on the Biotek Synergy HTX Multi-Mode reader. Results were adjusted by OD570 value in the blank.
. The differentiated PC12 cells were pretreated with three concentrations (10, 25 and 50 µM) for 3 h, before treatment with H2O2 (300 µM), and cell viability was measured after 24 h using MTT method. […]. Neuroprotective activity of compounds 6a and 6g […] was evaluated by subjecting PC12 cells to H2O2-induced damage. […]

A further series concerns the target T3, eqBuChE (Equus caballus, UniProt P81908).
T3 construct: BuChE from equine serum (C4290-1KU; Sigma); purchased Sigma C4290-1KU; host or cells: equine serum
Put plainly: Kinetic study of eqBuChE inhibition (Lineweaver-Burk plots). The format is biochemical, equine (horse). The procedure:
. The kinetic type of enzyme inhibition was obtained through the modified Ellman’s method and Lineweaver–Burk secondary plots. Apparent inhibition constants and kinetic parameters were calculated within the “Enzyme kinetics” module of Prism 5.
The kinetic studies were carried out at three fixed inhibitor concentrations (5, 10 and 20 µM).

A short description of series [4]: Log P assessment (shake flask method, octanol/PBS). The conditions noted are these: octanol/PBS pH 7.4, shake flask, 37 °C. The format is physicochemical. On the procedure: Log P, defined as the logarithm of octanol–water partition coefficient, is an important parameter to evaluate lipophilicity of compounds[45]. It can be calculated by determining the concentration of compound in octanol phase and water phase until the partition equilibrium was completed. In this work, log P of title compounds was measured by the shake flask method with slight modification. PBS (pH = 7.4) was used as the water. Both the octanol and the aqueous phase were saturated with each other before use. The assay mixture containing test compounds was shaken at 37 °C. After 24 h, the mixture was centrifuged at 4,000 rpm for 30 min, followed by the measurement with UV spectrophotometer. Experiments were conducted in triplicate and log p values were calculated.

Series [5] can be described thus: Cytotoxicity MTT assay in PC12 cells. The format is cell-based. The conditions noted are these: rat, 1-50 µM, read-out: relative cell viability (cytotoxicity). On the procedure:
PC12 cells were used to evaluate cell cytotoxicity by methyl thiazolyl tetrazolium (MTT) assay. PC12 cells were cultured in DMEM containing 10% fetal bovine serum, 100 µg/ml streptomycin and 100 units/ml penicillin at 37 °C in a 5% CO2 humidified atmosphere, and inoculated at 1 × 10^4 cells per well in 96-well plate. After cultured for 24 h, the cells were treated with different concentration of compounds in DMEM for 24 h. Then 20 µl of 0.5 mg/ml MTT reagent was added into the cells and incubated for 4 h. After 4 h, cell culture was removed and then 150 µl DMSO was added to dissolve the formazan. The optical density was measured at 570 nm (OD570). Cell viability was calculated from three independent experiments. OD570 of formazan in blank group was set as 100% of viability.
Blank: cultured with fresh medium only.

T3 sequence (P81908 whole entry): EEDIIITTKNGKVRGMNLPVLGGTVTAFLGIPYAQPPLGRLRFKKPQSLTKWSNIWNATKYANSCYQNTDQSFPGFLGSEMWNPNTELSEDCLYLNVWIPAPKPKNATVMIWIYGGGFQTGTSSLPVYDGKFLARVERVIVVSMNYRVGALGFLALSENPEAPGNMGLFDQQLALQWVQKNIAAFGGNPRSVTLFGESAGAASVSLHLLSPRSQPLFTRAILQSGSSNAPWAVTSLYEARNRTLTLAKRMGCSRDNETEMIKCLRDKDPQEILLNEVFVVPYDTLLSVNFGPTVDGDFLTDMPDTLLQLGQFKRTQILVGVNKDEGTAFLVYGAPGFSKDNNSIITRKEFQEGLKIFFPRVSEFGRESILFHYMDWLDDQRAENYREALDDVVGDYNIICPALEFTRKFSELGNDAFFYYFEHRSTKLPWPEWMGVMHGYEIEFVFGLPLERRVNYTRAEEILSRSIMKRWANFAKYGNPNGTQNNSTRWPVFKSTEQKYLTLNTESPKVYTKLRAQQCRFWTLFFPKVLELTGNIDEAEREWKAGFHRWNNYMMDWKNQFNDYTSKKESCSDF
T2 sequence (P81908 whole entry): as above
T1 sequence (O42275 24-633): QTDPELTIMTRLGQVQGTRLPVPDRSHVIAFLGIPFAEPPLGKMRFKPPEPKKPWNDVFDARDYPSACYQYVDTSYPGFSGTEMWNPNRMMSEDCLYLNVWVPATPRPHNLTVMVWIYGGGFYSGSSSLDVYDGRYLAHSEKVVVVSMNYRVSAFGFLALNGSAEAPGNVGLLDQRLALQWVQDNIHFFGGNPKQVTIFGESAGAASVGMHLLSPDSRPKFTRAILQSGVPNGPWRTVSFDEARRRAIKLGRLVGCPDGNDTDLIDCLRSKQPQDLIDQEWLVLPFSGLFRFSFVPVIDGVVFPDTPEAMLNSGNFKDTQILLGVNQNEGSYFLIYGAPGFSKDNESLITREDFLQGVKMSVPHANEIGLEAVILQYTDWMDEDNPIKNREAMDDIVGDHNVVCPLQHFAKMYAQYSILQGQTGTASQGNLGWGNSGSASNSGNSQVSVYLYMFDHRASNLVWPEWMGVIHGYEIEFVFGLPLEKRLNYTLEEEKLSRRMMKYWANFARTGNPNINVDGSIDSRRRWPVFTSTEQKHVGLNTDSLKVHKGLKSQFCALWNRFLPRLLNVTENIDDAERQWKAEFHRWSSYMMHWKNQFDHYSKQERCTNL

As usually defined, the inhibition is the share of the control response that was lost under treatment. The term IC50 denotes the concentration that gives 50% inhibition. By viability is commonly meant a read-out of living cells in per cent, often relative to untreated cells. What is called Ki is a measure of affinity in units of concentration, obtained from inhibition or displacement. By logP is commonly meant a log measure of how a compound divides between an organic and an aqueous phase. A low value points to lower lipophilicity. As to `CC1=NN2C(=O)Oc3ccc(Br)cc3C2C1` (stereo not shown) [Compound 6g, 9-Bromo-2-methyl-1,10b-dihydro-5H-pyrazolo[1,5-c][1,3]benzoxazin-5-one], in series [1], the inhibition at 20 µM is 26 ± 1%. For the same molecule, the IC50 in series [2] was found to be 1.63 ± 0.34 µM. Besides, the viability at 25 µM in series [3] is over 70%. Moreover, the “type of BuChE inhibition” value on eqBuChE (Lineweaver-Burk plots) is on record as “mixed-type inhibition”. Moreover, at eqBuChE (Lineweaver-Burk secondary plots, inhibitor 5, 10 and 20 µM, read-out: dissociation constant Ki against BuChE), the inhibition constant Ki was 3.09 µM. Besides, the logP at 24 h in series [4] was found to be 1.63. Besides, the viability at 24 h in series [5] was over 90%.
